Measurements: ChEMBL document CHEMBL4665712, “Phosphonium-ammonium-based di-cationic ionic liquids as antibacterial over the ESKAPE group” (Bioorg Med Chem Lett, 2020)

Assays:
Pseudomonas aeruginosa = experiment: Antibacterial activity against Pseudomonas aeruginosa 100720; assay type: functional
Escherichia coli = experiment: Antibacterial activity against Escherichia coli CIP 54.8; assay type: functional
Acinetobacter baumannii = experiment: Antibacterial activity against Acinetobacter baumannii ATCC 19606; assay type: functional; settings: ATCC 19606 = CIP 70.34 = JCM 6841
Enterococcus faecium = experiment: Antibacterial activity against Enterococcus faecium 20477; assay type: functional
Klebsiella pneumoniae = experiment: Antibacterial activity against Klebsiella pneumoniae CIP 82.91; assay type: functional
Staphylococcus aureus = experiment: Antibacterial activity against Staphylococcus aureus CIP 7625; assay type: functional
HepG2 = experiment: Cytotoxicity against human HepG2 cells assessed as reduction in cell viability; assay type: cell-based

Row | Structure (SMILES) | MIC (Pseudomonas aeruginosa) [µg/mL] | MIC (Escherichia coli) [µg/mL] | MIC (Acinetobacter baumannii) [µg/mL] | MIC (Enterococcus faecium) [µg/mL] | MIC (Klebsiella pneumoniae) [µg/mL] | MIC (Staphylococcus aureus) [µg/mL] | Activity (HepG2)
1 | CCCCCC[P+](CCCCCC)(CCCCCC)CCCCCC[P+](CCCC)(CCCC)CCCC.[Br-].[Br-] | > 64 | > 64 | > 64 | 8 | > 64 | 2 | –
2 | CCCCCC[P+](CCCCCC)(CCCCCC)CCCCCCCCCC[P+](CCCC)(CCCC)CCCC.[Br-].[Br-] | 64 | 4 | 8 | 2 | 16 | 0.5 | Toxic
3 | CCCCCC[N+](CCCCCC)(CCCCCC)CCCCCC[N+](CCCCCC)(CCCCCC)CCCCCC.[Br-].[Br-] | > 64 | 32 | > 64 | 1 | > 64 | 1 | –
4 | CCCCCCCC[P+](CCCCCCCC)(CCCCCCCC)CCCCCC[P+](CCCCCCCC)(CCCCCCCC)CCCCCCCC.[Br-].[Br-] | > 64 | 32 | 8 | 2 | 32 | 1 | –
5 | CCCC[P+](CCCC)(CCCC)CCCCCCCCCC[P+](CCCC)(CCCC)CCCC.[Br-].[Br-] | > 64 | > 64 | > 64 | > 64 | > 64 | 16 | Toxic
6 | CCCC[P+](CCCC)(CCCC)CCCCCC[P+](CCCC)(CCCC)CCCC.[Br-].[Br-] | > 64 | > 64 | > 64 | > 64 | > 64 | > 64 | –
7 | CCCCCCCC[P+](CCCCCCCC)(CCCCCCCC)CCCCCCCCCC[P+](CCCCCCCC)(CCCCCCCC)CCCCCCCC.[Br-].[Br-] | > 64 | > 64 | > 64 | 32 | > 64 | 16 | Toxic
8 | CCCCCC[N+](CCCCCC)(CCCCCC)CCCCCCCCCC[P+](CCCC)(CCCC)CCCC.[Br-].[Br-] | > 64 | 16 | > 64 | 2 | 64 | 1 | –
9 | CCCCCC[N+](CCCCCC)(CCCCCC)CCCCCC[P+](CCCC)(CCCC)CCCC.[Br-].[Br-] | > 64 | > 64 | > 64 | 64 | > 64 | 32 | –

Stronger by MIC (Pseudomonas aeruginosa), values ahead:

Row | MIC (Pseudomonas aeruginosa) [µg/mL] | MIC (Escherichia coli) [µg/mL] | MIC (Acinetobacter baumannii) [µg/mL] | MIC (Enterococcus faecium) [µg/mL] | MIC (Klebsiella pneumoniae) [µg/mL] | MIC (Staphylococcus aureus) [µg/mL] | Structure (SMILES) | Activity (HepG2)
10 | 8 | 2 | 16 | 0.5 | 4 | 0.5 | CCCCCC[N+](CCCCCC)(CCCCCC)CCCCCCCCCC[N+](CCCCCC)(CCCCCC)CCCCCC.[Br-].[Br-] | Toxic
11 | 4 | 2 | 2 | 0.5 | 2 | 0.5 | CCCCCC[P+](CCCCCC)(CCCCCC)CCCCCCCCCC[P+](CCCCCC)(CCCCCC)CCCCCC.[Cl-].[Cl-] | –
12 | 8 | 8 | 4 | 2 | 4 | 1 | CCCCCCCC[P+](CCCCCCCC)(CCCCCCCC)CCCCCC[P+](CCCCCC)(CCCCCC)CCCCCC.[Br-].[Br-] | –
13 | 2 | 2 | 2 | 0.5 | 2 | 0.5 | CCCCCC[P+](CCCCCC)(CCCCCC)CCCCCCCCCC[P+](CCCCCC)(CCCCCC)CCCCCC.[I-].[I-] | –
14 | 4 | 2 | 4 | 1 | 4 | 0.5 | CCCCCC[P+](CCCCCC)(CCCCCC)CCCCCCCCCC[P+](CCCCCC)(CCCCCC)CCCCCC.[Br-].[Br-] | Toxic
15 | 8 | 2 | 8 | 1 | 2 | 0.5 | CCCCCC[N+](CCCCCC)(CCCCCC)CCCCCCCCCC[P+](CCCCCC)(CCCCCC)CCCCCC.[Br-].[Br-] | Toxic
16 | 8 | 4 | 16 | 0.5 | 8 | 0.5 | CCCCCC[P+](CCCCCC)(CCCCCC)CCCCCC[P+](CCCCCC)(CCCCCC)CCCCCC.[Br-].[Br-] | –
